The values below come from patent publication US20250114345A1, “COMPOUNDS AND COMPOSITIONS AS CBP/P300 DEGRADERS AND USES THEREOF” (Oncopia Therapeutics, Inc. d/b/a/ SK Life Science Labs, priority 2023, published 2025).

Where only a bound is given, the exact number is not on record here.

This experiment addresses T1, p300 (Homo sapiens, UniProt Q09472).
T1 construct: host or cells: A549 P300 HiBit cells
Nature of the experiment: P300 degradation, HiBit technology in A549 P300 HiBit cells (2 h). It counts as cell-based. The note with it: 2 hrs post treatment; for Dmax: A549, A549 P300 HiBit cells; for DC50: A549 P300 HiBit cells. How it is done: p300 and CBP degradation potency and Dmax were determined using in cell western (ICW) assay technology in H1299 cells or HiBit technology in A549 HiBit cells.
A549 P300 HiBit and A549 CBP HiBit cells were plated in separate 384-well, TC treated, white-opaque, flat-bottomed microplate. Cells were plated at a cell density of 0.2×10^4 cells per well in assay media comprised of F-12K, 10% heat inactivated FBS, and 1% penicillin/streptomycin. Assay microplates containing HiBit cells were placed in a 37° C., 5% CO2, tissue culture incubator and left to equilibrate overnight. The next day cells were treated with serial dilutions of test compound made up of 10 mM stock solutions in DMSO. 384-Well plates containing treated cells were then placed back into a 37° C., 5% CO2, tissue culture incubator. Assay microplates containing A549 P300 HiBit cells were incubated for 2 hrs post treatment before P300 destruction was assessed, while microplates containing A549 CBP HiBit cells were incubated for 24 hrs post treatment before CBP destruction was determined. On the day of each assay time point, microplates were removed from the tissue culture incubator and prepared HiBit Lytic detection buffer (Promega, cat #N3O40) was added to each plate. Plates were covered with aluminum foil and incubated for ten minutes at room temperature on an orbital shaker. After incubation, luminescent signal of each plate was measured using the Envision instrument (Perkin Elmer).
Background: With HiBiT, luminescence reflects the tagged protein that the partner subunit can reach.

T1 sequence (Q09472 whole entry): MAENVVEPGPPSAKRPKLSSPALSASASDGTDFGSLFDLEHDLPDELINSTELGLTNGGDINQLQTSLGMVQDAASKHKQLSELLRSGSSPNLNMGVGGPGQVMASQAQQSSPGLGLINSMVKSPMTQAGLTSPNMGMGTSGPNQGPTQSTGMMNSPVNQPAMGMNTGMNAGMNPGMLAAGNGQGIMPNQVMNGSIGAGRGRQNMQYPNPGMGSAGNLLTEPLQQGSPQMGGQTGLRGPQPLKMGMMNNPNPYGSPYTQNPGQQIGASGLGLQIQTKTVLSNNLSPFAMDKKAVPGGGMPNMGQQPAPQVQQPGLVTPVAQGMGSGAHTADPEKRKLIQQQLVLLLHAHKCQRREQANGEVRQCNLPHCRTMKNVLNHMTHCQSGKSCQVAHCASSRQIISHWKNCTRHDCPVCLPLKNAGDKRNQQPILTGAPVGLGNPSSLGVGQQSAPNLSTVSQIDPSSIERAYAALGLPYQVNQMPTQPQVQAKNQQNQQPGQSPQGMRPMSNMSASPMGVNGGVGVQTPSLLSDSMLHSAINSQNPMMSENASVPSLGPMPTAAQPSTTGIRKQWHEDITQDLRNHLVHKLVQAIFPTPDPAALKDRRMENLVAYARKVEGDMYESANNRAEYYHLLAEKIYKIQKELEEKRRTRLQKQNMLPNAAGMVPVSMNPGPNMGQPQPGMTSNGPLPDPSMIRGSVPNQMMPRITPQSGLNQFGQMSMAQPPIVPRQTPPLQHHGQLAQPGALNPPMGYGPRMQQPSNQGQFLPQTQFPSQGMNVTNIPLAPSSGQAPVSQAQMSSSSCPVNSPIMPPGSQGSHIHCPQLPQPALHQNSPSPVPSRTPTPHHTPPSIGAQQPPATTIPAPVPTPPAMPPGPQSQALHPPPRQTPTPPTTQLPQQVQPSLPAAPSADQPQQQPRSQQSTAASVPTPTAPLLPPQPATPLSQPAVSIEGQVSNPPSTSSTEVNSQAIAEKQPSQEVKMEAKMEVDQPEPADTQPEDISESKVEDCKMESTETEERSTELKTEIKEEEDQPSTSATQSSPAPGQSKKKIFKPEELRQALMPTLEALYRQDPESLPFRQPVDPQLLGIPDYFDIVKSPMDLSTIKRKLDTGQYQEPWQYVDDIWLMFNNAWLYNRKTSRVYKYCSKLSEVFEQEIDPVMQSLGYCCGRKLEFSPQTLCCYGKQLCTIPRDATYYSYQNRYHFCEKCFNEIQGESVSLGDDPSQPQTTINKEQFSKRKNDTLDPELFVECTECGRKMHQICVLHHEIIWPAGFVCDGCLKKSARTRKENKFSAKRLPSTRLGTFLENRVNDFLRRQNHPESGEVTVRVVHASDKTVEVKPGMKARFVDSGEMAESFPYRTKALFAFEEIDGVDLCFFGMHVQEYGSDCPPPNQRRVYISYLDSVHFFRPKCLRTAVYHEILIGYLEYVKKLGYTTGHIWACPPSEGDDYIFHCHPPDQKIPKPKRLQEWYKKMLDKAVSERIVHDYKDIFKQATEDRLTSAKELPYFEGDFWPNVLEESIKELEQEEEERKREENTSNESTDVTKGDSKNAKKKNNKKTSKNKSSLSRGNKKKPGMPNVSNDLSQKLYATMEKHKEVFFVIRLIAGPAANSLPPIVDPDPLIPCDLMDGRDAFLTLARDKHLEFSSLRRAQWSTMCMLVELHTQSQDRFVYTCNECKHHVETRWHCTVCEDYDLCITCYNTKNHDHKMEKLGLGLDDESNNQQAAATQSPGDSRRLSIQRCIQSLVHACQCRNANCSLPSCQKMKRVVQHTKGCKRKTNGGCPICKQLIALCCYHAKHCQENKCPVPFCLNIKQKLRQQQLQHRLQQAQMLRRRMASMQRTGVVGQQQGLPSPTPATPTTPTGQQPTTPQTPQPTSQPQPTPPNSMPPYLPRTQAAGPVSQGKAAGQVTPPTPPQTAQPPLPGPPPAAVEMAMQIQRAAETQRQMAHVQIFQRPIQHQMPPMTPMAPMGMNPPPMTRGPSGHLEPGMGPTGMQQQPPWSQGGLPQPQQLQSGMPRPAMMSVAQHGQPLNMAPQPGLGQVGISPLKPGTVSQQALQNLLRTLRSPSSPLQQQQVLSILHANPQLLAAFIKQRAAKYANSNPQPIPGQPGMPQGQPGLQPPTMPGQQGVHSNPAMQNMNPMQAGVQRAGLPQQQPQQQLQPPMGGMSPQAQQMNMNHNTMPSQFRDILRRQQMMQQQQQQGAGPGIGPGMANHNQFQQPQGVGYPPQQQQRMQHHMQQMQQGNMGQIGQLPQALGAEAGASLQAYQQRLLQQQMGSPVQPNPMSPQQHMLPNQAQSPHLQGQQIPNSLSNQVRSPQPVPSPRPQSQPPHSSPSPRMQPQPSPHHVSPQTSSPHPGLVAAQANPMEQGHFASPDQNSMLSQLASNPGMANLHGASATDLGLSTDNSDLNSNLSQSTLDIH

Compound `CC(C)c1cc(C2CC(C)(C)Oc3cc(-c4ccc(C(=O)NCC#Cc5ccc6occ(C7CCC(=O)NC7=O)c6c5)nc4)c(F)cc32)cc2c1n(C)c(=O)n2C` (stereo not shown) [Example A85, N-(3-(3-(2,6-dioxo-piperidin-3-yl)benzofuran-5-yl)prop-2-yn-1-yl)-5-(6-fluoro-4-(7-isopropyl-1,3-dimethyl-2-oxo-2,3-dihydro-1H-benzo [d]imidazol-5-yl)-2,2-dimethylchroman-7-yl)picolinamide] had a Dmax of more than 80% and a DC50 of 1 to 9.9 nM.
For the compound `Cc1cc(-c2ncc(N(C)c3cc(C(C)C)c4c(c3)n(C)c(=O)n4C)cc2C#N)cnc1C(=O)NCC#Cc1ccc2occ(C3CCC(=O)NC3=O)c2c1` (stereo not shown) [Example A98, 3-cyano-N-(3-(3-(2,6-dioxopiperidin-3-yl)benzofuran-5-yl)prop-2-yn-1-yl)-5-((7-isopropyl-1,3-dimethyl-2-oxo-2,3-dihydro-1H-benzo[d]imidazol-5-yl)(methyl)amino)-5′-methyl-[2,3′-bipyridine]-6′-carboxamide], the Dmax is more than 80% and the DC50 lay within 1 to 9.9 nM.
In turn, `CCc1cc(N2CCCc3nc(-c4ccc(C(=O)NCC#Cc5ccc6occ(C7CCC(=O)NC7=O)c6c5)nc4)ncc32)c2cc(C)c(=O)n(C)c2c1` (stereo not shown) [Example B43, N-(3-(3-(2,6-dioxopiperidin-3-yl)benzofuran-5-yl)prop-2-yn-1-yl)-5-(5-(7-ethyl-1,3-dimethyl-2-oxo-1,2-dihydroquinolin-5-yl)-5,6,7,8-tetrahydropyrido[3,2-d]pyrimidin-2-yl) picolinamide] displayed a Dmax of more than 80% and a DC50 of 1 to 9.9 nM.
For `CN1CCN(c2ccc3c(c2)n(C)c(=O)n3C)c2cc(C(F)(F)F)c(-c3ccc(C(=O)NCC#Cc4cc5c(C6CCC(=O)NC6=O)cccc5o4)nc3)cc21` (stereo not shown) [Example A242, 5-(1-(1,3-dimethyl-2-oxo-2,3-dihydro-1H-benzo[d]imidazol-5-yl)-4-methyl-7-(trifluoromethyl)-1,2,3,4-tetrahydroquinoxalin-6-yl)-N-(3-(4-(2,6-dioxopiperidin-3-yl)benzofuran-2-yl)prop-2-yn-1-yl)picolinamide] the same measures were more than 80% and 1 to 9.9 nM.
For `Cc1cc(-c2ncc(N(C)c3ccc4c(c3)n(C)c(=O)n4C)cn2)cnc1C(=O)NCC#Cc1ccc2occ(C3CCC(=O)NC3=O)c2c1` (stereo not shown) [Example A103, 5-(5-((1,3-dimethyl-2-oxo-2,3-dihydro-1H-benzo[d]imidazol-5-yl)(methyl)amino)pyrimidin-2-yl)-N-(3-(3-(2,6-dioxopiperidin-3-yl)benzofuran-5-yl)prop-2-yn-1-yl)-3-methylpicolinamide] the same measures were 60 to 79% and 1 to 9.9 nM.
`Cc1cc(-c2ncc3c(n2)OCCN3c2cc(C3CCOCC3)c3c(c2)n(C)c(=O)n3C)cnc1C(=O)NCC#Cc1cc2c(C3CCC(=O)NC3=O)cccc2o1` (stereo not shown) [Example A252, 5-(5-(1,3-dimethyl-2-oxo-7-(tetrahydro-2H-pyran-4-yl)-2,3-dihydro-1H-benzo[d]imidazol-5-yl)-6,7-dihydro-5H-pyrimido[4,5-b][1,4]oxazin-2-yl)-N-(3-(4-(2,6-dioxopiperidin-3-yl)benzofuran-2-yl)prop-2-yn-1-yl)-3-methylpicolinamide] showed a Dmax of more than 80% and a DC50 of 1 to 9.9 nM.
With `CC(C)c1cc(-c2cccc3cc(-c4ccc(C(=O)NCC#Cc5ccc6occ(C7CCC(=O)NC7=O)c6n5)nc4)ncc23)cc2c1n(C)c(=O)n2C` (stereo not shown) [Example A159, N-(3-(3-(2,6-dioxo-piperidin-3-yl)furo[3,2-b]pyridin-5-yl)prop-2-yn-1-yl)-5-(8-(7-isopropyl-1,3-dimethyl-2-oxo-2,3-dihydro-1H-benzo [d]imidazol-5-yl)isoquinolin-3-yl)picolinamide], the Dmax was in the range of 40 to 59% and the DC50 fell in the range of 10 to 99 nM.
For `CCc1cc(N2CCCc3cc(-c4ccc(C(=O)NCC#Cc5ccc6occ(C7CCC(=O)NC7=O)c6c5)nc4)c(F)cc32)c2cc(C)c(=O)n(C)c2c1` (stereo not shown) [Example B133, N-(3-(3-(2,6-dioxopiperidin-3-yl)benzofuran-5-yl)prop-2-yn-1-yl)-5-(7′-ethyl-7-fluoro-1′,3′-dimethyl-2′-oxo-1′,2′,3,4-tetrahydro-2H-[1,5′-biquinolin]-6-yl)picolinamide] the same measures were more than 80% and 1 to 9.9 nM.
For `CCN(c1cnc(-c2ccc(C(=O)NCC#Cc3cc4c(C5CCC(=O)NC5=O)cccc4o3)nc2)nc1)c1cc(C2CCOCC2)c2c(c1)n(C)c(=O)n2C` (stereo not shown) [Example A224, 5-(5-((1,3-dimethyl-2-oxo-7-(tetrahydro-2H-pyran-4-yl)-2,3-dihydro-1H-benzo[d]imidazol-5-yl)(ethyl)amino)pyrimidin-2-yl)-N-(3-(4-(2,6-dioxopiperidin-3-yl)benzofuran-2-yl)prop-2-yn-1-yl)picolinamide] the same measures were more than 80% and 1 to 9.9 nM.
For `CC(C)c1cc(-c2cccc3cc(-c4ccc(C(=O)NCC#Cc5cnc6c(c5)N(C5CCC(=O)NC5=O)CC6)nc4)ncc23)cc2c1n(C)c(=O)n2C` (stereo not shown) [Example A249, N-(3-(1-(2,6-dioxo-piperidin-3-yl)-2,3-dihydro-1H-pyrrolo [3,2-b]pyridin-6-yl)prop-2-yn-1-yl)-5-(8-(7-isopropyl-1,3-dimethyl-2-oxo-2,3-dihydro-1H-benzo[d]imidazol-5-yl)isoquinolin-3-yl)picolinamide] the same measures were 20 to 39% and 10 to 99 nM.
For `Cn1c(=O)n(C)c2ncc(N3CCOc4nc(-c5ccc(C(=O)NCC#Cc6cc7c(C8CCC(=O)NC8=O)cccc7o6)nc5)ncc43)cc21` (stereo not shown) [Example A268, 5-(5-(1,3-dimethyl-2-oxo-2,3-dihydro-1H-imidazo[4,5-b]pyridin-6-yl)-6,7-dihydro-5H-pyrimido[4,5-b] [1,4]oxazin-2-yl)-N-(3-(4-(2,6-dioxopiperidin-3-yl)benzofuran-2-yl)prop-2-yn-1-yl)picolinamide], the Dmax is 20 to 39% and the half-maximal degradation concentration (DC50) is 10 to 99 nM.
`CN1C(=O)Cc2cc(-c3cccc4cc(-c5ccc(C(=O)NCC#Cc6ccc7occ(C8CCC(=O)NC8=O)c7c6)nc5)ncc34)ccc21` (stereo not shown) [Example A104, N-(3-(3-(2,6-dioxo-piperidin-3-yl)benzofuran-5-yl)prop-2-yn-1-yl)-5-(8-(1-methyl-2-oxoindolin-5-yl)isoquinolin-3-yl)picolinamide] displayed a Dmax of less than 20% and a half-maximal degradation concentration (DC50) of more than 1000 nM.
For `Cc1cc(-c2ncc3c(n2)CCCN3c2nc(N3CCOCC3)cc3c2cc(C)c(=O)n3C)cnc1C(=O)NCC#Cc1cc2c(C3CCC(=O)NC3=O)cccc2o1` (stereo not shown) [Example B89, 5-(5-(1,3-dimethyl-7-morpholino-2-oxo-1,2-dihydro-1,6-naphthyridin-5-yl)-5,6,7,8-tetrahydropyrido[3,2-d]pyrimidin-2-yl)-N-(3-(4-(2,6-dioxopiperidin-3-yl)benzofuran-2-yl)prop-2-yn-1-yl)-3-methylpicolinamide] the same measures were more than 80% and 1 to 9.9 nM.
For `Cc1cc(-c2cc3c(cc2C(F)F)N(c2ccc4c(c2)n(C)c(=O)n4C)CCC3)cnc1C(=O)NCC#Cc1ccc2occ(C3CCC(=O)NC3=O)c2c1` (stereo not shown) [Example A94, 5-(7-(difluoromethyl)-1-(1,3-dimethyl-2-oxo-2,3-dihydro-1H-benzo[d]imidazol-5-yl)-1,2,3,4-tetrahydro-quinolin-6-yl)-N-(3-(3-(2,6-dioxopiperidin-3-yl)benzofuran-5-yl)prop-2-yn-1-yl)-3-methylpicolinamide] the same measures were more than 80% and 1 to 9.9 nM.

Broadly, the Dmax is the greatest extent of degradation seen. The low end stands for shallow degradation, the high end for deep degradation. As a reminder, the DC50 is the concentration at which degradation of the target reaches its halfway point. A high value points to a less potent degrader.
